The record followed here is PubChem BioAssay (NCI).

Among the test systems are NCI-H23 lung; COLO 205 colon; HL-60(TB) leukemia; CCRF-CEM leukemia; EKVX NSCLC; HOP-92 NSCLC; SF-295 CNS; MCF7 breast; NCI/ADR-RES ovarian.
Common to all, as to assay: growth of human tumour cells (NCI), 48 h

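These data come from cells grown in 96-well plates and exposed to compound for 48 hours at five concentrations. GI50 is the concentration that inhibits growth by half. TGI is the concentration that stops growth completely.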 A value given as a limit tells only on which side of the number the result lay.

For the molecule `CCOC(=O)C[C@@H](C)[C@]1(C(=O)OC)CCCC1=O`, the TGI in the assay on NCI-H23 lung is above 100 µM; with COLO 205 colon, above 84.2 µM; with HL-60(TB) leukemia, above 100 µM; with CCRF-CEM leukemia it was above 100 µM; with EKVX NSCLC, above 100 µM; in the assay on HOP-92 NSCLC, above 100 µM. Moreover, the TGI in the assay on SF-295 CNS was above 100 µM.
Consider `CC1=C(C(=O)Nc2ccccc2)C(c2ccc([N+](=O)[O-])cc2)C(C(=O)Nc2ccccc2)=C(C)N1`, for which the TGI was 64.7 µM with NCI-H23 lung; 34.1 µM in the assay with HL-60(TB) leukemia; 39.8 µM in the assay on CCRF-CEM leukemia; 46.2 µM in the assay on EKVX NSCLC; 60.9 µM in the assay on HOP-92 NSCLC; above 100 µM in the assay with SF-295 CNS.
`COc1cc(Br)c(CC2(C#N)c3ccccc3C3C(N2C(=O)c2ccccc2)C3(Cl)Cl)cc1OC` (stereo not drawn): the TGI in the assay with NCI-H23 lung was above 65.5 µM; with COLO 205 colon it was above 65.5 µM; with HL-60(TB) leukemia, 30.2 µM; with CCRF-CEM leukemia it was above 65.5 µM; in the assay with EKVX NSCLC, above 65.5 µM; in the assay on HOP-92 NSCLC, above 65.5 µM.
As to `CCOC(=O)Cc1nc2ccccc2s1`, the TGI with NCI-H23 lung was 29.3 µM; with COLO 205 colon, above 100 µM; in the assay with HL-60(TB) leukemia, 43.9 µM; in the assay with CCRF-CEM leukemia, 72.8 µM; with EKVX NSCLC it was above 100 µM; in the assay on SF-295 CNS, 32.2 µM.
With `COc1cccc(NC(=O)C(C)(C)C)c1C=O`, the TGI in the assay with NCI-H23 lung, with COLO 205 colon, with HL-60(TB) leukemia, in the assay with CCRF-CEM leukemia, in the assay on EKVX NSCLC and in the assay on HOP-92 NSCLC was above 100 µM in each case. Also, the TGI in the assay on SF-295 CNS is above 100 µM.
Take `C[N+](C)(C)CC(=O)N/N=C(\CCC(=O)NCCc1ccccc1)CC(=O)c1ccccc1`: the TGI in the assay on NCI-H23 lung, in the assay with COLO 205 colon, in the assay on HL-60(TB) leukemia, in the assay with CCRF-CEM leukemia, with EKVX NSCLC and in the assay on HOP-92 NSCLC was above 100 µM each time. The TGI in the assay on SF-295 CNS is above 100 µM.
On to `CN(C)c1ncnc2c1Cc1ccccc1C(=O)N2C`, for which the TGI in the assay on NCI-H23 lung, in the assay on COLO 205 colon, with HL-60(TB) leukemia, in the assay on CCRF-CEM leukemia, in the assay on EKVX NSCLC and in the assay on HOP-92 NSCLC was above 100 µM in each case. The molecule also came in with a TGI with SF-295 CNS above 100 µM.
Take `CC(/C=C/C(=O)c1sc(-n2nc(-c3ccccc3)cc2-c2ccccc2)nc1C)=C\c1ccccc1`: the TGI in the assay on NCI-H23 lung is 68.1 µM; in the assay with HL-60(TB) leukemia, above 100 µM; in the assay with CCRF-CEM leukemia, above 100 µM; in the assay on EKVX NSCLC, above 100 µM; in the assay with SF-295 CNS, above 100 µM. Moreover, the GI50 is 9.73 µM with EKVX NSCLC and above 100 µM with SF-295 CNS.
On to `CCSC(SCC)c1cc2c(cc1Br)OCO2`, for which the TGI is 88.9 µM with NCI-H23 lung; 59.3 µM with COLO 205 colon; 38 µM with HL-60(TB) leukemia; 62.4 µM in the assay with CCRF-CEM leukemia; above 100 µM with EKVX NSCLC; 55.3 µM in the assay on HOP-92 NSCLC. The TGI with SF-295 CNS is 72.1 µM.
For `CC1CN(c2ccc(Cl)cc2)CC(C)(C)OC(=O)O1` (stereo not drawn), the TGI in the assay with NCI-H23 lung, in the assay on COLO 205 colon, in the assay on HL-60(TB) leukemia, in the assay on CCRF-CEM leukemia, in the assay on EKVX NSCLC and in the assay on HOP-92 NSCLC was above 100 µM in each case. In the assay on SF-295 CNS, this molecule gave a TGI above 100 µM.
On to `O=C1Nc2cc(Cl)ccc2N=CC1NC(=O)C(c1ccccc1)c1ccccc1Cl` (stereo not drawn), for which the TGI with NCI-H23 lung, in the assay with COLO 205 colon, in the assay with HL-60(TB) leukemia, with CCRF-CEM leukemia, with EKVX NSCLC and in the assay on HOP-92 NSCLC was above 100 µM throughout. In the assay with SF-295 CNS, this molecule showed a TGI above 100 µM.
Turning to `COCc1c(CO)cnc(C)c1OC1OC(CO)C(O)C(O)C1O` (stereo not drawn), the TGI in the assay on EKVX NSCLC and in the assay with SF-295 CNS was above 100 µM each time.
Regarding `O=C(/C=C/c1ccc(O)c(O)c1)OC1C[C@@](O)(C(=O)O)C[C@@H](O)[C@H]1OC(=O)/C=C/c1ccc(O)c(O)c1` (stereo partly drawn), the TGI with NCI-H23 lung, in the assay with COLO 205 colon, with HL-60(TB) leukemia, in the assay with CCRF-CEM leukemia, in the assay with EKVX NSCLC and in the assay with HOP-92 NSCLC was above 100 µM in each case. Also, the TGI with SF-295 CNS was above 100 µM.
Regarding `COc1cccc(Cn2c(-c3nonc3N)nc3ccccc32)c1`, the GI50 with NCI-H23 lung is 0.717 µM; in the assay on COLO 205 colon it was 0.393 µM; in the assay on HL-60(TB) leukemia, 0.298 µM; in the assay on MCF7 breast it was 0.383 µM; with CCRF-CEM leukemia, 0.348 µM; with NCI/ADR-RES ovarian it was 0.396 µM. The results for the GI50 in the assay on HOP-92 NSCLC and in the assay on SF-295 CNS were 0.344 µM and 0.307 µM, respectively. Also, the TGI was above 100 µM with NCI-H23 lung; 10.1 µM with COLO 205 colon; 13.8 µM with HL-60(TB) leukemia; above 100 µM in the assay with MCF7 breast; above 100 µM with CCRF-CEM leukemia; 16.4 µM in the assay with HOP-92 NSCLC.
Take `CCOc1cc2ccc3c4cc(OC)c(OC)cc4cnc3c2cc1OCC`: the TGI in the assay on NCI-H23 lung, with COLO 205 colon, with CCRF-CEM leukemia, in the assay on EKVX NSCLC and in the assay on SF-295 CNS was above 100 µM throughout.
Regarding `O=C(O)C1=C(C(=O)Nc2ccccc2)C2C=CC1C2` (stereo not drawn), the TGI with NCI-H23 lung, in the assay with COLO 205 colon, with HL-60(TB) leukemia, in the assay on CCRF-CEM leukemia, in the assay on EKVX NSCLC and in the assay on HOP-92 NSCLC was above 100 µM throughout. Also, the TGI in the assay on SF-295 CNS is above 100 µM.
As to `CC(C)C1C(=O)NC(CO)Cc2c[nH]c3c(C(c4c[nH]c5ccccc45)C(O)CO)ccc(c23)N1C` (stereo not drawn), the TGI in the assay with NCI-H23 lung was above 100 µM; in the assay with COLO 205 colon it was 38.6 µM; with HL-60(TB) leukemia, above 100 µM; in the assay with CCRF-CEM leukemia, above 100 µM; with EKVX NSCLC, above 100 µM; with HOP-92 NSCLC it was above 100 µM. Besides, the TGI with SF-295 CNS is above 100 µM.
Take `COc1ccc2c(c1O)C(=O)C(CCC(=O)O)CC2` (stereo not drawn): the TGI in the assay with NCI-H23 lung, in the assay on COLO 205 colon, in the assay with HL-60(TB) leukemia, in the assay on CCRF-CEM leukemia, with EKVX NSCLC and in the assay on HOP-92 NSCLC was above 100 µM in each case. Moreover, the TGI with SF-295 CNS was above 100 µM.
